# Results reported in patent US12559529B2, “NPY2 receptor agonists” (Boehringer Ingelheim International GmbH, priority 2019, dated 2026).
# *1 amine or outer side, *2 acyl side, *3 side chain or, on linkers, in order; H or OH if unused. Where a SMILES comes first, the peptide text is derived from it. Side-chain parts run from the residue outwards. The star is where a group is joined. C18 diacid = O=C(O)CCCCCCCCCCCCCCCCC(=O)*; γGlu = O=C(O)[C@H](CCC(=O)[*:2])N[*:1]; Isovaleryl = CC(C)CC(=O)*; AEEA = NCCOCCOCC(=O)O
# Target: T1, Human Neuropeptide Y2 Receptor (Homo sapiens, UniProt P49146)
# T1 construct: purchased CHEMICON HTS066M
# T1 sequence (P49146 1-381): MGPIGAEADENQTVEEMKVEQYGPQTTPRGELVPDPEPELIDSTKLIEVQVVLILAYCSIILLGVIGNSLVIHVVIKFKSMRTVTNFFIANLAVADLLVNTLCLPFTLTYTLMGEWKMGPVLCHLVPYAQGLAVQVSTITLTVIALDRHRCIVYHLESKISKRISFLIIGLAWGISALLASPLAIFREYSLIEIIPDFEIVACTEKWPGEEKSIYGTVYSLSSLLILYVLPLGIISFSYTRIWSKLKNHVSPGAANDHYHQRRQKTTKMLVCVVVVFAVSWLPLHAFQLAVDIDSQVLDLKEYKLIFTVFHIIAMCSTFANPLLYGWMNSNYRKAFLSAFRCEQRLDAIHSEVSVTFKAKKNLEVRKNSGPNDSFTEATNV
# Assay: Radioligand binding competition assay (RLB)
# Settings: Table 3; human 125I-PYY (1-36) 0.02 nM, Y2 receptor membranes; read-out: Ki
# Summary of the method: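 Membranes (0.5 μg/well) and test peptides, serially diluted from 1 mM DMSO stocks, were incubated 2 hours at room temperature in HEPES buffer pH 7.4 with Mg, Ca and ovalbumin.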
row,SMILES,Ki [nM]
1,"CC(C)CC(=O)N[C@@H](C)C(=O)N1CCC[C@H]1C(=O)N[C@@H](C)C(=O)N[C@@H](CCCCNC(=O)COCCOCCNC(=O)COCCOCCNC(=O)CC[C@H](NC(=O)CCCCCCCCCCCCCCCCC(=O)O)C(=O)O)C(=O)N1CCC[C@H]1C(=O)N[C@@H](CCC(=O)O)C(=O)N[C@@H](CCC(=O)O)C(=O)N[C@@H](CC(=O)O)C(=O)N[C@@H](C)C(=O)N[C@@H](CO)C(=O)N1CCC[C@H]1C(=O)N[C@@H](CCC(=O)O)C(=O)N[C@@H](CCC(=O)O)C(=O)N[C@@H](CC(C)C)C(=O)N[C@@H](CCC(=O)O)C(=O)N[C@@H](CCC(N)=O)C(=O)N[C@@H](Cc1ccc(O)cc1)C(=O)N[C@@H](Cc1ccc(O)cc1)C(=O)N[C@H](C(=O)N[C@@H](CO)C(=O)N[C@@H](CC(C)C)C(=O)N[C@@H](CCCNC(=N)N)C(=O)N[C@@H](Cc1c[nH]cn1)C(=O)N[C@@H](Cc1ccc(O)cc1)C(=O)N[C@@H](Cc1ccc(O)cc1)C(=O)N[C@@H](CC(N)=O)C(=O)N[C@@H](Cc1c[nH]c2ccccc12)C(=O)N[C@@H](CC(C)C)C(=O)N[C@H](C(=O)N[C@@H](CCCNC(=N)N)C(=O)N[C@@H](CCC(N)=O)C(=O)N[C@@H](CCCNC(=N)N)C(=O)N[C@@H](Cc1ccc(O)cc1)C(N)=O)[C@@H](C)O)C(C)C [Compound 216, N{alpha-4}-(3-methylbutanoyl)-N{epsilon-7}-[2-(2-{2-[2-(2-{2-[(4S)-4-carboxy-4-(17-carboxyheptadecanamido)butanamido]ethoxy}ethoxy)acetamido]ethoxy}ethoxy)acetamido]-[4A,6A,7K,9E,18E,19Q,22V,28Y,30W,31L]hPYY (4-36)] (Isovaleryl-APAK([AEEA-AEEA-γGlu-C18 diacid])PEEDASPEELEQYYVSLRHYYNWLTRQRY-NH2)",0.93
2,"CC(C)CC(=O)N[C@@H](C)C(=O)N1CCC[C@H]1C(=O)N[C@@H](CCC(=O)O)C(=O)N[C@@H](CCCCNC(=O)COCCOCCNC(=O)COCCOCCNC(=O)CC[C@H](NC(=O)CCCCCCCCCCCCCCCCC(=O)O)C(=O)O)C(=O)N1CCC[C@H]1C(=O)N[C@@H](CCC(=O)O)C(=O)N[C@@H](CCC(=O)O)C(=O)N[C@@H](CC(=O)O)C(=O)N[C@@H](CO)C(=O)N[C@@H](CO)C(=O)N1CCC[C@H]1C(=O)N[C@@H](CCC(=O)O)C(=O)N[C@@H](CCC(=O)O)C(=O)N[C@@H](CC(C)C)C(=O)N[C@@H](CCC(N)=O)C(=O)N[C@@H](CCCNC(=N)N)C(=O)N[C@@H](Cc1ccc(O)cc1)C(=O)N[C@@H](Cc1ccc(O)cc1)C(=O)N[C@H](C(=O)N[C@@H](C)C(=O)N[C@@H](CC(C)C)C(=O)N[C@@H](CCCNC(=N)N)C(=O)N[C@@H](Cc1c[nH]cn1)C(=O)N[C@@H](Cc1ccc(O)cc1)C(=O)N[C@@H](Cc1ccc(O)cc1)C(=O)N[C@@H](CC(N)=O)C(=O)N[C@@H](Cc1c[nH]c2ccccc12)C(=O)N[C@@H](CC(C)C)C(=O)N[C@H](C(=O)N[C@@H](CCCNC(=N)N)C(=O)N[C@@H](CCC(N)=O)C(=O)N[C@@H](CCCNC(=N)N)C(=O)N[C@@H](Cc1ccc(O)cc1)C(N)=O)[C@@H](C)O)C(C)C [Compound 218, N{alpha-4}-(3-methylbutanoyl)-N{epsilon-7}-[2-(2-{2-[2-(2-{2-[(4S)-4-carboxy-4-(17-carboxyheptadecanamido)butanamido]ethoxy}ethoxy)acetamido]ethoxy}ethoxy)acetamido]-[4A,7K,9E,12S,18Q,22V,23A,28Y,30W,31L]hPYY (4-36)]",1.49
3,"CC(C)CC(=O)N[C@@H](C)C(=O)N1CCC[C@H]1C(=O)N[C@@H](CCC(=O)O)C(=O)N[C@@H](CCCCNC(=O)COCCOCCNC(=O)COCCOCCNC(=O)CC[C@H](NC(=O)CCCCCCCCCCCCCCCCC(=O)O)C(=O)O)C(=O)N1CCC[C@H]1C(=O)N[C@@H](CCC(=O)O)C(=O)N[C@@H](CCC(=O)O)C(=O)N[C@@H](CCC(=O)O)C(=O)N[C@@H](C)C(=O)N[C@@H](C)C(=O)N1CCC[C@H]1C(=O)N[C@@H](CCC(=O)O)C(=O)N[C@@H](CCC(=O)O)C(=O)N[C@@H](CC(C)C)C(=O)N[C@@H](CCC(N)=O)C(=O)N[C@@H](CCCNC(=N)N)C(=O)N[C@@H](Cc1ccc(O)cc1)C(=O)N[C@@H](Cc1ccc(O)cc1)C(=O)N[C@H](C(=O)N[C@@H](CO)C(=O)N[C@@H](CC(C)C)C(=O)N[C@@H](CCCNC(=N)N)C(=O)N[C@@H](Cc1c[nH]cn1)C(=O)N[C@@H](Cc1ccc(O)cc1)C(=O)N[C@@H](Cc1ccc(O)cc1)C(=O)N[C@@H](CC(N)=O)C(=O)N[C@@H](Cc1c[nH]c2ccccc12)C(=O)N[C@@H](CC(C)C)C(=O)N[C@H](C(=O)N[C@@H](CCCNC(=N)N)C(=O)N[C@@H](CCC(N)=O)C(=O)N[C@@H](CCCNC(=N)N)C(=O)N[C@@H](Cc1ccc(O)cc1)C(N)=O)[C@@H](C)O)C(C)C [Compound 219, N{alpha-4}-(3-methylbutanoyl)-N{epsilon-7}-[2-(2-{2-[2-(2-{2-[(4S)-4-carboxy-4-(17-carboxyheptadecanamido)butanamido]ethoxy}ethoxy)acetamido]ethoxy}ethoxy)acetamido]-[4A,7K,9E,11E,13A,18Q,22V,28Y,30W,31L]hPYY (4-36)]",7.6

# More lines, now with the values ahead:
row,Ki [nM],SMILES
1,2.99,"CC(C)CC(=O)N[C@@H](C)C(=O)N1CCC[C@H]1C(=O)N[C@@H](CCC(=O)O)C(=O)N[C@@H](CCCCNC(=O)COCCOCCNC(=O)COCCOCCNC(=O)CC[C@H](NC(=O)CCCCCCCCCCCCCCCCC(=O)O)C(=O)O)C(=O)N1CCC[C@H]1C(=O)N[C@@H](CCC(=O)O)C(=O)N[C@@H](CCC(=O)O)C(=O)N[C@@H](C)C(=O)N[C@@H](C)C(=O)N[C@@H](CO)C(=O)N[C@@H](C)C(=O)N[C@@H](CCC(=O)O)C(=O)N[C@@H](CCC(=O)O)C(=O)N[C@@H](CC(C)C)C(=O)N[C@@H](CCC(N)=O)C(=O)N[C@@H](CCCNC(=N)N)C(=O)N[C@@H](Cc1ccc(O)cc1)C(=O)N[C@@H](Cc1ccc(O)cc1)C(=O)N[C@H](C(=O)N[C@@H](CO)C(=O)N[C@@H](CC(C)C)C(=O)N[C@@H](CCCNC(=N)N)C(=O)N[C@@H](Cc1c[nH]cn1)C(=O)N[C@@H](Cc1ccc(O)cc1)C(=O)N[C@@H](Cc1ccc(O)cc1)C(=O)N[C@@H](CC(N)=O)C(=O)N[C@@H](Cc1c[nH]c2ccccc12)C(=O)N[C@@H](CC(C)C)C(=O)N[C@H](C(=O)N[C@@H](CCCNC(=N)N)C(=O)N[C@@H](CCC(N)=O)C(=O)N[C@@H](CCCNC(=N)N)C(=O)N[C@@H](Cc1ccc(O)cc1)C(N)=O)[C@@H](C)O)C(C)C [Compound 220, N{alpha-4}-(3-methylbutanoyl)-N{epsilon-7}-[2-(2-{2-[2-(2-{2-[(4S)-4-carboxy-4-(17-carboxyheptadecanamido)butanamido]ethoxy}ethoxy)acetamido]ethoxy}ethoxy)acetamido]-[4A,7K,9E,11A,14A,18Q,22V,28Y,30W,31L]hPYY (4-36)]"
2,4.77,"CC(C)CC(=O)N[C@@H](C)C(=O)N1CCC[C@H]1C(=O)N[C@@H](CCC(=O)O)C(=O)N[C@@H](CCCCNC(=O)COCCOCCNC(=O)COCCOCCNC(=O)CC[C@H](NC(=O)CCCCCCCCCCCCCCCCC(=O)O)C(=O)O)C(=O)N1CCC[C@H]1C(=O)N[C@@H](CCC(=O)O)C(=O)N[C@@H](CCC(=O)O)C(=O)N[C@@H](C)C(=O)N[C@@H](C)C(=O)N[C@@H](CCC(=O)O)C(=O)N1CCC[C@H]1C(=O)N[C@@H](CCC(=O)O)C(=O)N[C@@H](CCC(=O)O)C(=O)N[C@@H](CC(C)C)C(=O)N[C@@H](CCC(N)=O)C(=O)N[C@@H](CCCNC(=N)N)C(=O)N[C@@H](Cc1ccc(O)cc1)C(=O)N[C@@H](Cc1ccc(O)cc1)C(=O)N[C@H](C(=O)N[C@@H](CO)C(=O)N[C@@H](CC(C)C)C(=O)N[C@@H](CCCNC(=N)N)C(=O)N[C@@H](Cc1c[nH]cn1)C(=O)N[C@@H](Cc1ccc(O)cc1)C(=O)N[C@@H](Cc1ccc(O)cc1)C(=O)N[C@@H](CC(N)=O)C(=O)N[C@@H](Cc1c[nH]c2ccccc12)C(=O)N[C@@H](CC(C)C)C(=O)N[C@H](C(=O)N[C@@H](CCCNC(=N)N)C(=O)N[C@@H](CCC(N)=O)C(=O)N[C@@H](CCCNC(=N)N)C(=O)N[C@@H](Cc1ccc(O)cc1)C(N)=O)[C@@H](C)O)C(C)C [Compound 223, N{alpha-4}-(3-methylbutanoyl)-N{epsilon-7}-[2-(2-{2-[2-(2-{2-[(4S)-4-carboxy-4-(17-carboxyheptadecanamido)butanamido]ethoxy}ethoxy)acetamido]ethoxy}ethoxy)acetamido]-[4A,7K,9E,11A,13E,18Q,22V,28Y,30W,31L]hPYY (4-36)]"
